Assay results published in patent publication US11180462B2, “Microbiocidal oxadiazole derivatives” (SYNGENTA PARTICIPATIONS AG, priority 2015, dated 2021).

Legend:
[1] = tested on: Puccinia recondita f. Sp. Tritici; experiment: Fungicidal activity against Puccinia recondita f. sp. tritici / wheat / leaf disc preventative (brown rust); type: in vivo; settings: foliar, 200 ppm in the applied formulation, wheat leaf segments, preventative, compared to untreated control leaf disks, read-out: disease control
Procedure, shortened: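 Preventative leaf-segment test, wheat cv. Kanzler on water agar. Spray compound at 200 ppm, inoculate with spores 1 day later; 19° C., 75% rh, 12/12 h light. Read-out: % disease control vs untreated, 7 to 9 days after application.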

[2] = tested on: Puccinia recondita f. Sp. Tritici; experiment: Fungicidal activity against Puccinia recondita f. sp. tritici / wheat / leaf disc curative (brown rust); type: in vivo; settings: foliar, 24 h, 200 ppm in the applied formulation, wheat leaf segments, curative (applied 1 day after inoculation), compared to untreated control leaf disks, read-out: disease control
Procedure, shortened: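 Scoring is percent disease control relative to untreated segments, made 6 to 8 days after treatment. Wheat (cv. Kanzler) leaf segments received the formulated, water-diluted compound one day post-inoculation with spores, having been kept dark at 19° C and 75% RH, then incubated under 12 h light/12 h dark at the same temperature and humidity.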

[3] = tested on: Phakopsora Pachyrhizi; experiment: Fungicidal activity against Phakopsora pachyrhizi / soybean / leaf disc preventative (Asian soybean rust); type: in vivo; settings: foliar, 200 ppm in the applied formulation, soybean leaf disks, compared to untreated control leaf disks, read-out: disease control
Procedure, shortened: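 Preventative soybean leaf-disc test: discs on water agar sprayed with diluted formulated compound, inoculated one day later with spores on the lower surface. Held 24–36 h dark at 20°C, 75% rh, then 12 h light/day; percent disease control versus untreated discs scored 12–14 days after application.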

[4] = tested on: Glomerella lagenarium (Colletotrichum lagenarium); experiment: Fungicidal activity against Glomerella lagenarium (Colletotrichum lagenarium) liquid culture / cucumber / preventative (anthracnose); type: cell-based; settings: Colletotrichum orbiculare; 20 ppm in the applied formulation; liquid culture (PDB), growth inhibition measured photometrically after 3 to 4 days; compared to untreated control; read-out: disease control
Procedure, shortened: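 Photometric read-out of fungal growth after 2–7 days, expressed as percent antifungal activity versus untreated check. Cryo-stored conidia in PDB; compound at 20 ppm; dark, 24 °C, 96% RH.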

C#CCN(Cc1ccc(-c2noc(C(F)(F)F)n2)cc1)C(=O)C1CC1(F)F (centres unmarked) [Compound 1.157, 2,2-difluoro-N-prop-2-ynyl-N-[[4-[5-(trifluoromethyl)-1,2,4-oxadiazol-3-yl]phenyl]methyl]-cyclopropane-carboxamide]
≥ 80%: pest or weed control at 200 ppm [1] | pest or weed control at 200 ppm [2] | pest or weed control at 200 ppm [3] | inhibition of growth at 20 ppm [4]

C=CCN(Cc1ccc(-c2noc(C(F)(F)F)n2)cc1)C(=O)CCOC [Compound 1.476, N-allyl-3-methoxy-N-[[4-[5-(trifluoromethyl)-1,2,4-oxadiazol-3-yl]phenyl]methyl]-propanamide]
≥ 80%: pest or weed control at 200 ppm [1] | pest or weed control at 200 ppm [2] | pest or weed control at 200 ppm [3] | inhibition of growth at 20 ppm [4]

C#CCN(Cc1ccc(-c2noc(C(F)(F)F)n2)cc1)C(=O)C1(C(F)(F)F)CC1 [Compound 1.151, N-prop-2-ynyl-1-(trifluoromethyl)-N-[[4-[5-(trifIuoromethyl)-1,2,4-oxadiazol-3-yl]phenyl]methyl]-cyclopropane-carboxamide]
≥ 80%: pest or weed control at 200 ppm [1] | pest or weed control at 200 ppm [2] | pest or weed control at 200 ppm [3] | inhibition of growth at 20 ppm [4]

CCOCC(=O)N(CCOC)Cc1ccc(-c2noc(C(F)(F)F)n2)cc1 [Compound 1.339, 2-ethoxy-N-(2-methoxyethyl)-N-[[4-[5-(trifluoromethyl)-1,2,4-oxadiazol-3-yl]phenyl]methyl]-acetamide]
≥ 80%: pest or weed control at 200 ppm [1] | pest or weed control at 200 ppm [2] | pest or weed control at 200 ppm [3] | inhibition of growth at 20 ppm [4]

O=C(C1CCCO1)N(Cc1ccc(-c2noc(C(F)(F)F)n2)cc1)CC(F)(F)F (centres unmarked) [Compound 1.587, N-(2,2,2-Trifluoroethyl)-N-[[4-[5-(Trifluoromethyl)-1,2,4-Oxadiazol-3-yl]Phenyl]Methyl]Tetrahydrofuran-2-Carboxamide]
≥ 80%: pest or weed control at 200 ppm [1] | pest or weed control at 200 ppm [2] | pest or weed control at 200 ppm [3] | inhibition of growth at 20 ppm [4]

C#CCN(Cc1ccc(-c2noc(C(F)(F)F)n2)cc1)C(=O)C1CC1 [Compound 1.201, N-prop-2-ynyl-N-[[4-[5-(trifluoromethyl)-1,2,4-oxadiazol-3-yl]phenyl]methyl]-cyclopropane-carboxamide]
≥ 80%: pest or weed control at 200 ppm [1] | pest or weed control at 200 ppm [2] | pest or weed control at 200 ppm [3] | inhibition of growth at 20 ppm [4]

CCON(Cc1ccc(-c2noc(C(F)(F)F)n2)cc1)C(=O)CCOC [Compound 1.618, N-ethoxy-3-methoxy-N-[[4-[5-(trifluoromethyl)-1,2,4-oxadiazol-3-yl]phenyl]methyl]-propanamide]
≥ 80%: pest or weed control at 200 ppm [1] | pest or weed control at 200 ppm [2] | pest or weed control at 200 ppm [3] | inhibition of growth at 20 ppm [4]

CCC(C)N(Cc1ccc(-c2noc(C(F)(F)F)n2)cc1)C(=O)CC(F)(F)F (centres unmarked) [Compound 1.404]
≥ 80%: pest or weed control at 200 ppm [1] | pest or weed control at 200 ppm [2] | pest or weed control at 200 ppm [3] | inhibition of growth at 20 ppm [4]

CCC(C)N(Cc1ccc(-c2noc(C(F)(F)F)n2)cc1)C(C)=O (centres unmarked) [Compound 1.407, N-sec-butyl-N-[[4-[5-(trifluoromethyl)-1,2,4-oxadiazol-3-yl]phenyl]methyl]-acetamide]
≥ 80%: pest or weed control at 200 ppm [1] | pest or weed control at 200 ppm [2] | pest or weed control at 200 ppm [3] | inhibition of growth at 20 ppm [4]

CCNC(=O)N(Cc1ccc(-c2noc(C(F)(F)F)n2)cc1)C1CC1 [Compound 3.34, 1-cyclopropyl-3-ethyl-1-[[4-[5-(trifluoromethyl)-1,2,4-oxadiazol-3-yl]phenyl]methyl]urea]
≥ 80%: pest or weed control at 200 ppm [1] | pest or weed control at 200 ppm [2] | pest or weed control at 200 ppm [3] | inhibition of growth at 20 ppm [4]

CCON(Cc1ccc(-c2noc(C(F)(F)F)n2)cc1)C(=O)C(C)OC (centres unmarked) [Compound 1.629, N-ethoxy-2-methoxy-N-[[4-[5-(trifluoromethyl)-1,2,4-oxadiazol-3-yl]phenyl]methyl]-propanamide]
≥ 80%: pest or weed control at 200 ppm [1] | pest or weed control at 200 ppm [2] | pest or weed control at 200 ppm [3] | inhibition of growth at 20 ppm [4]

CCC(C)N(Cc1ccc(-c2noc(C(F)(F)F)n2)cc1)C(=O)C1(C#N)CC1 (centres unmarked) [Compound 1.399, 1-cyano-N-sec-butyl-N-[[4-[5-(trifluoromethyl)-1,2,4-oxadiazol-3-yl]phenyl]methyl]-cyclopropane-carboxamide]
≥ 80%: pest or weed control at 200 ppm [1] | pest or weed control at 200 ppm [2] | pest or weed control at 200 ppm [3] | inhibition of growth at 20 ppm [4]

CON(Cc1ccc(-c2noc(C(F)(F)F)n2)cc1)C(=O)NC1CCCC1 [Compound 3.23, 3-cyclopentyl-1-methoxy-1-[[4-[5-(trifluoromethyl)-1,2,4-oxadiazol-3-yl]phenyl]methyl]urea]
≥ 80%: pest or weed control at 200 ppm [1] | pest or weed control at 200 ppm [2] | pest or weed control at 200 ppm [3] | inhibition of growth at 20 ppm [4]

CON(Cc1ccc(-c2noc(C(F)(F)F)n2)cc1)C(=O)NCc1ccccc1 [Compound 3.15, 3-benzyl-1-methoxy-1-[[4-[5-(trifluoromethyl)-1,2,4-oxadiazol-3-yl]phenyl]methyl]urea]
≥ 80%: pest or weed control at 200 ppm [1] | pest or weed control at 200 ppm [2] | pest or weed control at 200 ppm [3] | inhibition of growth at 20 ppm [4]

C#CCN(Cc1ccc(-c2noc(C(F)(F)F)n2)cc1)C(=O)C1CCOC1 (centres unmarked) [Compound 1.171, N-prop-2-ynyl-N-[[4-[5-(trifluoromethyl)-1,2,4-oxadiazol-3-yl]phenyl]methyl]-tetrahydrofuran-3-carboxamide]
≥ 80%: pest or weed control at 200 ppm [1] | pest or weed control at 200 ppm [2] | pest or weed control at 200 ppm [3] | inhibition of growth at 20 ppm [4]

CN(Cc1ccc(-c2noc(C(F)(F)F)n2)cc1)C(=O)C(C)(C)O [Compound 1.781, 2-hydroxy-N,2-dimethyl-N-[[4-[5-(trifluoromethyl)-1,2,4-oxadiazol-3-yl]phenyl]methyl]-propanamide]
≥ 80%: pest or weed control at 200 ppm [1] | pest or weed control at 200 ppm [2] | pest or weed control at 200 ppm [3] | inhibition of growth at 20 ppm [4]

CON(Cc1ccc(-c2noc(C(F)(F)F)n2)cc1)C(=O)N(C)C1CC1 [Compound 3.58, 1-cyclopropyl-3-methoxy-1-methyl-3-[[4-[5-(trifluoromethyl)-1,2,4-oxadiazol-3-yl]phenyl]methyl]urea]
≥ 80%: pest or weed control at 200 ppm [1] | pest or weed control at 200 ppm [2] | pest or weed control at 200 ppm [3] | inhibition of growth at 20 ppm [4]

CCN(Cc1ccc(-c2noc(C(F)(F)F)n2)cc1)C(=O)C1OCCO1 [Compound 1.513, N-ethyl-N-[[4-[5-(trifluoromethyl)-1,2,4-oxadiazol-3-yl]phenyl]methyl]-1,3-dioxolane-2-carboxamide]
≥ 80%: pest or weed control at 200 ppm [1] | pest or weed control at 200 ppm [2] | pest or weed control at 200 ppm [3] | inhibition of growth at 20 ppm [4]

COCCCC(=O)N(Cc1ccc(-c2noc(C(F)(F)F)n2)cc1)C(C)C [Compound 1.681, N-isopropyl-4-methoxy-N-[[4-[5-(trifluoromethyl)-1,2,4-oxadiazol-3-yl]phenyl]methyl]-butanamide]
≥ 80%: pest or weed control at 200 ppm [1] | pest or weed control at 200 ppm [2] | pest or weed control at 200 ppm [3] | inhibition of growth at 20 ppm [4]

CON(Cc1ccc(-c2noc(C(F)(F)F)n2)cc1)C(=O)C1(C(F)(F)F)CCC1 [Compound 1.19, N-methoxy-1-(trifluoromethyl)-N-[[4-[5-(trifluoromethyl)-1,2,4-oxadiazol-3-yl]phenyl]methyl]-cyclobutane-carboxamide]
≥ 80%: pest or weed control at 200 ppm [1] | pest or weed control at 200 ppm [2] | pest or weed control at 200 ppm [3] | inhibition of growth at 20 ppm [4]
